In publication PMC5666514 (Chemical Science, 2015):
Where two headings read alike, the source gives them in different places. *1 amine or outer side, *2 acyl side, *3 side chain or, on linkers, in order; H or OH if unused. Where a SMILES comes first, the peptide text is derived from it. [ ]: non-standard residue; d: D form. The star is where a group is joined. 5FAM = O=C1OC2(c3ccc(O)cc3Oc3cc(O)ccc32)c2ccc(C(=O)*)cc21; Quinoxaline2carbonyl = O=C(c1cnc2ccccc2n1)*; Ethylenediamine = C(CN[*:2])N[*:1]; NMeV = CN[C@H](C(=O)O)C(C)C; NMeAbu = CC[C@H](NC)C(=O)O; Abu = CC[C@H](N)C(=O)O; Dap = NC[C@H](N)C(=O)O

What was measured:
Test in all cases: cells
Assay type in all cases: cell-based, human
[1] = system: A-549 lung carcinoma cells
Method: (§1) The twelve synthesized compounds were evaluated in vitro using the following four human cancer cell lines: cervical adenocarcinoma (HeLa), lung carcinoma (A-549), breast adenocarcinoma (SK-BR-3) and colon adenocarcinoma (HT-29). Cells were treated for 24 h with various concentrations of the compounds, and their cytotoxic activity was then assessed using the [3-(4,5-dimethylthiazol-2-yl)-2,5-diphenyltetrazolium] bromide (MTT) assay.[29] Analysis of the dose-response data obtained yielded IC50 (50% inhibitory concentration) values, which are detailed in Table 1.
(§2) Normally growing cells were plated at 5 × 10^3 cells per well into 96-well plates and incubated for 24 h at 37 °C to allow attachment to the surface. Samples were then added dissolved in a DMSO–PBS vehicle (less than 1% in culture medium) at a range of concentrations. Drugs were run in triplicate or greater and control wells contained appropriate percentages of vehicle. After 24 h of exposure, the antitumor effect was measured using a solution of MTT, which is bioreduced by viable cells into formazan. The formed crystals were solubilized using DMSO and the amount of formazan was measured by reading the absorbance at 570 nm. The absorbance of wells containing only the MTT reagent (the plate blank) was subtracted from all wells.
(§3) The IC50 values were determined by dose response curve analysis and statistical analysis using GraphPad Prism software version 5.0a. […]
(§4) mM L-glutamine and antibiotics.
(§5) in a humidified atmosphere containing 5% CO2. For sub-culturing, cells were detached from
(§6) 5 mL of fresh medium preheated at 37 °C. Cellular density was determined in a Neubauer

[2] = system: HT-29 colon adenocarcinoma cells
Method: as §1, §2, §3, §4, §5, §6

[3] = system: HeLa cervical adenocarcinoma cells
Method: as §1, §2, §3, §4, §5, §6

[4] = system: SK-BR-3 breast adenocarcinoma cells
Method: as §1, §2, §3, §4, §5, §6

[5] = MTT assay, 24 h exposure, run in triplicate or greater, read-out: IC50, Cervix HeLa

Compound | IC50 ([1]; 24 h) | IC50 ([2]; 24 h) | IC50 ([3]; 24 h) | IC50 ([4]; 24 h) | further results
COc1cccc2c1C(=O)c1c(O)c3c(c(O)c1C2=O)C[C@@](O)(C(=O)CO)C[C@@H]3O[C@H]1C[C@H](N)[C@H](O)[C@H](C)O1 [Doxorubicin, reference compound] | – | – | – | – | IC50 ([1]; Homo sapiens, A549, MTT assay, 24 h exposure, run in triplicate or greater, read-out: IC50, Lung A-549): 0.6 µM; IC50 ([2]; Homo sapiens, HT-29, MTT assay, 24 h exposure, run in triplicate or greater, read-out: IC50, Colon HT-29): 8.9 µM; IC50 ([3]; Homo sapiens, HeLa, MTT assay, 24 h exposure, run in triplicate or greater, read-out: IC50, Cervix HeLa): 5.4 µM; IC50 ([4]; Homo sapiens, SK-BR-3, MTT assay, 24 h exposure, run in triplicate or greater, read-out: IC50, Breast SK-BR-3): 0.5 µM
CC[C@@H](C(=O)N(C)[C@H](C(=O)N[C@H](C(=O)N1CCC[C@@H]1C(=O)NCC(=O)N[C@H](C(=O)N(C)[C@H](C(=O)N(C)[C@@H](CC)C(=O)NCCNC(=O)c1cnc2ccccc2n1)C(C)C)C(C)C)C(C)C)C(C)C)N(C)C(=O)[C@H](CO)NC(=O)c1cnc2ccccc2n1 [RZ1] (Quinoxaline2carbonyl-S[NMeAbu][NMeV]V[dP]GV[NMeV][NMeAbu]-{Ethylenediamine-Quinoxaline2carbonyl}) | 51.2 µM | 88.4 µM | 42.2 µM | 96.7 µM | –
CC[C@H](NC(=O)[C@H](CNC(=O)c1ccc2c(c1)C(=O)OC21c2ccc(O)cc2Oc2cc(O)ccc21)NC(=O)c1cnc2ccccc2n1)C(=O)N[C@H](C(=O)N[C@H](C(=O)N1CCC[C@@H]1C(=O)NCC(=O)N[C@H](C(=O)N[C@H](C(=O)N[C@@H](CC)C(=O)NCCNC(=O)c1cnc2ccccc2n1)C(C)C)C(C)C)C(C)C)C(C)C [RZ2CF] (Quinoxaline2carbonyl-[Dap](5FAM)[Abu]VV[dP]GVV[Abu]-{Ethylenediamine-Quinoxaline2carbonyl}) | – | – | – | – | IC50 [3, 5]: 16.7 µM
CC[C@@H](C(=O)NCCNC(=O)c1cnc2ccccc2n1)N(C)C(=O)[C@H](C(C)C)N(C)C(=O)[C@@H](NC(=O)CNC(=O)[C@H]1CCCN1C(=O)[C@@H](NC(=O)[C@H](C(C)C)N(C)C(=O)[C@H](CC)N(C)C(=O)[C@@H](CO)NC(=O)c1cnc2ccccc2n1)C(C)C)C(C)C [RZ3] (Quinoxaline2carbonyl-[dS][NMeAbu][NMeV]V[dP]GV[NMeV][NMeAbu]-{Ethylenediamine-Quinoxaline2carbonyl}) | 65.8 µM | 72.3 µM | 93.8 µM | 98.1 µM | –
CC[C@H](NC(=O)[C@@H](NC(=O)[C@@H](NC(=O)CNC(=O)[C@H]1CCCN1C(=O)[C@@H](NC(=O)[C@@H](NC(=O)[C@H](CC)NC(=O)[C@@H](CO)NC(=O)c1cnc2ccccc2n1)C(C)C)C(C)C)C(C)C)C(C)C)C(=O)NCCNC(=O)c1cnc2ccccc2n1 [RZ4] (Quinoxaline2carbonyl-[dS][Abu]VV[dP]GVV[Abu]-{Ethylenediamine-Quinoxaline2carbonyl}) | – | – | – | – | IC50 ([1]; MTT assay, 24 h exposure, run in triplicate or greater, read-out: IC50, Lung A-549): 34.9 µM; IC50 ([2]; MTT assay, 24 h exposure, run in triplicate or greater, read-out: IC50, Colon HT-29): 75 µM; IC50 [3, 5]: 30.9 µM; IC50 ([4]; MTT assay, 24 h exposure, run in triplicate or greater, read-out: IC50, Breast SK-BR-3): > 100 µM
CC[C@@H](C(=O)N(C)[C@H](C(=O)N[C@H](C(=O)N1CCC[C@@H]1C(=O)NCC(=O)N[C@H](C(=O)N(C)[C@H](C(=O)N(C)[C@@H](CC)C(=O)NCCNC(=O)c1cnc2ccccc2n1)C(C)C)[C@@H](C)O)[C@@H](C)O)C(C)C)N(C)C(=O)[C@H](CO)NC(=O)c1cnc2ccccc2n1 [RZ5] (Quinoxaline2carbonyl-S[NMeAbu][NMeV]T[dP]GT[NMeV][NMeAbu]-{Ethylenediamine-Quinoxaline2carbonyl}) | 70.7 µM | 84.8 µM | > 100 µM | 84.6 µM | –
CC[C@H](NC(=O)[C@H](CO)NC(=O)c1cnc2ccccc2n1)C(=O)N[C@H](C(=O)N[C@H](C(=O)N1CCC[C@@H]1C(=O)NCC(=O)N[C@H](C(=O)N[C@H](C(=O)N[C@@H](CC)C(=O)NCCNC(=O)c1cnc2ccccc2n1)C(C)C)[C@@H](C)O)[C@@H](C)O)C(C)C [RZ6] (Quinoxaline2carbonyl-S[Abu]VT[dP]GTV[Abu]-{Ethylenediamine-Quinoxaline2carbonyl}) | 84.5 µM | 83.1 µM | 45.6 µM | 55.3 µM | –
CC[C@@H](C(=O)NCCNC(=O)c1cnc2ccccc2n1)N(C)C(=O)[C@H](C(C)C)N(C)C(=O)[C@@H](NC(=O)CNC(=O)[C@H]1CCCN1C(=O)[C@@H](NC(=O)[C@H](C(C)C)N(C)C(=O)[C@H](CC)N(C)C(=O)[C@@H](CO)NC(=O)c1cnc2ccccc2n1)[C@@H](C)O)[C@@H](C)O [RZ7] (Quinoxaline2carbonyl-[dS][NMeAbu][NMeV]T[dP]GT[NMeV][NMeAbu]-{Ethylenediamine-Quinoxaline2carbonyl}) | 72.8 µM | 90.7 µM | 84.5 µM | > 100 µM | –
